From patent US20250188085A1, “COMPOSITIONS AND METHODS FOR INHIBITION OF RAS” (THERAS, INC., priority 2022, published 2025)

Assays:
[1] = target: T1, GppNHp-loaded KRAS4b (amino acids 1-169) G12C/C118S protein (Homo sapiens, UniProt P01116, C118S/G12C); experiment: Covalent cysteine 12 modification by MALDI-TOF MS, GppNHp-loaded KRAS G12C; type: binding; details: 15 minutes reaction time point
T1 construct: KRAS4b (amino acids 1-169) G12C/C118S protein; made in house
Method in brief: (§1)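 KRAS4b 1-169 G12C/C118S loaded with GDP, GppNHp or GTP was used at 1 μM in 20 mM HEPES, 150 mM NaCl, 1 mM MgCl2, pH 7.3, and incubated with compound (5 mM DMSO stock) at room temperature in the dark. % modification at 15 min is adduct peak height over total protein peak heights by linear-mode MALDI-TOF.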

[2] = target: T2, GTP-loaded KRAS4b (amino acids 1-169) G12C/C118S protein (Homo sapiens, UniProt P01116, C118S/G12C); experiment: Covalent cysteine 12 modification by MALDI-TOF MS, GTP-loaded KRAS G12C; type: binding; details: 15 minutes reaction time point
T2 construct: KRAS4b (amino acids 1-169) G12C/C118S protein; made in house
Method: Reaction: 1 μM of GppNHp-, GTP-, or GDP-loaded KRAS4b (amino acids 1-169) G12C/C118S protein (produced in-house by Protein Expression Laboratory, FNLCR/Leidos Biomed) in 20 mM 4-(2-hydroxyethyl)-1-piperazineethanesulfonic acid (HEPES) buffer containing 150 mM NaCl, 1 mM MgCl2, pH 7.3 was prepared freshly before assay. Ten-μL aliquots of protein were dispensed onto low volume 384-well plate, then 375 nL DMSO, and 25 nL of tested compounds from 5 mM DMSO stocks were added to appropriate wells using ECHO 555 acoustic liquid handler (Labcyte Inc.). For each reaction/assay, three blanks were prepared by mixing 10 μL of protein solution with 400 nL DMSO. The contents of the wells were carefully mixed by aspiration, and then each plate was sealed with an adhesive cover, centrifuged at 2000 g for 1 minute, and kept in the dark at room temperature until 5 min, 15 min, 30 min, or 2 h collections.
Target pretreatment: Before each assay MALDI target (Bruker MPT 384 ground steel BC) was pre-treated by pipetting on each spot 0.75 μL of saturated sinapinic acid in acetonitrile (ACN).
Sample preparation: At collection time point, 2 μL of reaction mixtures were pipetted out into 20 μL MALDI matrix solution (saturated solution of sinapinic acid in 1:1 ACN:water solution containing 0.75% trifluoroacetic acid (TFA)) deposited on 384 well polypropylene plate. Resulting solution was mixed by aspiration, centrifuged at 2000 g for 1 minute, then 1 μL aliquots were dispensed on pre-treated MALDI target using Beckman Coulter Biomek FXP 96/384-Span-8 Laboratory Automation Workstation. Finally, the MALDI target was dried under mild vacuum to produce spots with fine crystalline structure.
Measurements: MALDI-TOF measurements were performed on a Bruker Daltonics rapiflex Tissuetyper TOF-TOF mass spectrometer using linear mode and mass range from 18.6 to 21.6 kDa. Detector gain was set to 3.3× (483 V), sample rate to 5 GS/s, real time smoothing to medium (175 MHz), laser smart beam pattern was set to: “MS Thin Layer M5”, and the laser frequency was 10000 Hz. Spectra were automatically collected using custom Auto Xecute method. Laser power was auto adjusted using fuzzy control. The peak selection range was set to be between 19000 and 21500 Da. Peak evaluation uses half width parameter set to be smaller than 40 Da for processed spectrograms (centroid peak detection; smoothed by SavitzkyGolay algorithm using 7 m/z width and 2 cycles; baseline was subtracted using median algorithm with flatness 1 and median level 0.01). Fuzzy control used Proteins/Oligonucleotides protocol with minimum half width 1/10 times above threshold. Up to 40000 satisfactory shots were collected in 10000 shot steps. Dynamic termination was implemented to finish data collection when peak signal/noise ratio was reaching value of 50.
Spectra processing: Spectra were smoothed by SavitzkyGolay algorithm using 7 m/z width and three cycles. Centroid peak detection algorithm was used with signal to noise threshold set to 6, relative intensity threshold 4%, peak width 10 m/z and median baseline subtraction using flatness of 1 and median level of 0.01. Peak intensity and area under the peak were evaluated and recorded for all peaks between 19,300 Da and 21,550 Da.
Calculation of percent modification: Percent modification was calculated as a ratio of peak height for protein modified by compound to sum of peak height of remaining protein plus peak height for protein modified by compound. If multiple modifications were observed each was calculated as a ratio of peak height for given modification versus sum of peak heights for all observed protein species. Data reported in Table 5 are from 15 minutes reaction time point.

[3] = target: T3, GDP-loaded KRAS4b (amino acids 1-169) G12C/C118S protein (Homo sapiens, UniProt P01116, C118S/G12C); experiment: Covalent cysteine 12 modification by MALDI-TOF MS, GDP-loaded KRAS G12C; type: binding; details: 15 minutes reaction time point
T3 construct: KRAS4b (amino acids 1-169) G12C/C118S protein; made in house
Method in brief: as §1

[4] = target: T4, Avi-KRAS G12C (1-169) GppNHp/RAF1 RBD-3×FLAG (52-151) (Homo sapiens, UniProt P01116, G12C); experiment: Raf1 RBD-KRAS G12C-GppNHp disruption (protein:protein interaction HTRF assay); type: biochemical
T4 construct: Avi-KRAS G12C (1-169) GppNHp/RAF1 RBD-3×FLAG (52-151)
Method in brief: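 HTRF measuring disruption of 50 nM Avi-KRAS G12C (1-169) loaded with GppNHp binding RAF1 RBD-3×FLAG (52-151), in pH 7.5 Tris buffer with 5 mM MgCl2, 0.1% BSA, 10% DMSO. KRAS preincubated with compound 1 h, then RBD 1 h, then detection reagents 1 h, all at room temperature. Compound titration 30-0.02 μM; activity expressed as percent of DMSO control.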

[5] = tested on: pERK in NCI-H358 cells; experiment: Cell-based pERK HTRF assay; details: Homo sapiens, NCI-H358, 0.5 h, 30 min incubation, read-out: pERK in NCI-H358 cell inhibition IC50
Method in brief: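 Cells seeded at 4×10^4/well in RPMI with 10% FBS, then next day treated for 30 min with a 9-point, 3-fold series from 75 μM top concentration at 0.25% DMSO. Lysates were read for pERK by HTRF (d2/Eu cryptate antibodies) after 4–24 h at room temperature, emission at 615 nm.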

GppNHp-KRAS G12C percent of modification [1] | GTP-KRAS G12C percent of modification [2] | GDP-KRAS G12C percent of modification [3] | IC50 [4] [nM] | IC50 [5] [nM] | Compound
B (50≤percent of modification <70%) | B (50≤percent of modification <70%) | B (50≤percent of modification <70%) | ≤ 500 | ≤ 100 | C=CC(=O)N1C[C@H](Oc2nc(OC[C@@]34CCCN3C[C@H](F)C4)nc3c(F)c(-c4ccc(F)c5sc(N)c(C#N)c45)c(C(F)(F)F)cc23)[C@@H](F)C1 [Compound 67]
A (percent of modification ≥70%) | C (10%≤modification <50%) | A (percent of modification ≥70%) | ≤ 500 | 100 to 1000 | C=CC(=O)N1C[C@H](Oc2nc(OC[C@@]34CCCN3C[C@H](F)C4)nc3c(F)c(-c4ccc(F)c5sc(N)c(C#N)c45)ccc23)C[C@H]1C [Compound 68]
A (percent of modification ≥70%) | C (10%≤modification <50%) | A (percent of modification ≥70%) | ≤ 500 | ≤ 100 | C=CC(=O)N1C[C@H](Oc2nc(OC[C@@]34CCCN3C[C@H](F)C4)nc3c(F)c(-c4ccc(F)c5sc(N)nc45)c(C(F)(F)F)cc23)C[C@@H]1CO [Compound 69]
A (percent of modification ≥70%) | B (50≤percent of modification <70%) | A (percent of modification ≥70%) | ≤ 500 | ≤ 100 | C=CC(=O)N1C[C@@H](F)[C@@H](Oc2nc(OC[C@@]34CCCN3C[C@H](F)C4)nc3c(F)c(-c4ccc(F)c5sc(N)c(C#N)c45)ncc23)C1 [Compound 70]
C (10%≤modification <50%) | D (percent of modification <10%) | C (10%≤modification <50%) | ≤ 500 | ≤ 100 | C=CC(=O)N1CC[C@@H](Oc2nc(OC[C@@]34CCCN3C[C@H](F)C4)nc3c(F)c(-c4ccc(F)c5sc(N)c(C#N)c45)c(C(F)(F)F)cc23)[C@H]1CF [Compound 71]
A (percent of modification ≥70%) | A (percent of modification ≥70%) | A (percent of modification ≥70%) | ≤ 500 | ≤ 100 | C=CC(=O)N1CC[C@@H](Oc2nc(OC[C@@]34CCCN3C[C@H](F)C4)nc3c(F)c(-c4ccc(F)c5sc(N)c(C#N)c45)ncc23)[C@H]1C [Compound 73, 4-(4-(((2R,3R)-1-acryloyl-2-methylpyrrolidin-3-yl)oxy)-8-fluoro-2-(((2R,7aS)-2-fluorotetrahydro-1H-pyrrolizin-7a (5H)-yl)methoxy)pyrido[4,3-d]pyrimidin-7-yl)-2-amino-7-fluorobenzo[b]thiophene-3-carbonitrile]
A (percent of modification ≥70%) | A (percent of modification ≥70%) | A (percent of modification ≥70%) | ≤ 500 | ≤ 100 | C=CC(=O)N1C[C@H](Oc2nc(OC[C@@]34CCCN3C[C@H](F)C4)nc3c(F)c(-c4ccc(F)c5sc(N)c(C#N)c45)ncc23)[C@@H](F)C1 [Compound 75]
A (percent of modification ≥70%) | A (percent of modification ≥70%) | A (percent of modification ≥70%) | ≤ 500 | ≤ 100 | C=CC(=O)N1CC[C@@H](Oc2nc(OC[C@@]34CCCN3C[C@H](F)C4)nc3c(F)c(-c4ccc(F)c5sc(N)c(C#N)c45)ccc23)[C@H]1C [Compound 76, 4-(4-(((2R,3R)-1-acryloyl-2-methylpyrrolidin-3-yl)oxy)-8-fluoro-2-(((2R,7aS)-2-fluorotetrahydro-1H-pyrrolizin-7a (5H)-yl)methoxy)quinazolin-7-yl)-2-amino-7-fluorobenzo[b]thiophene-3-carbonitrile]
A (percent of modification ≥70%) | A (percent of modification ≥70%) | A (percent of modification ≥70%) | ≤ 500 | ≤ 100 | C=CC(=O)N1C[C@H](Oc2nc(OC[C@@]34CCCN3C[C@H](F)C4)nc3c(F)c(-c4ccc(F)c5sc(N)c(C#N)c45)ccc23)[C@@H](F)C1 [Compound 77]
C (10%≤modification <50%) | D (percent of modification <10%) | C (10%≤modification <50%) | ≤ 500 | ≤ 100 | C=CC(=O)N1CCC(Oc2nc(N3CC(N4CC5(CC5)C4)C3)nc3c(F)c(-c4ccc(F)c5sc(N)c(C#N)c45)c(C(F)(F)F)cc23)C1 (centres unmarked) [Compound 78]
A (percent of modification ≥70%) | A (percent of modification ≥70%) | A (percent of modification ≥70%) | ≤ 500 | ≤ 100 | C=CC(=O)N1C[C@@H](F)[C@@H](Oc2nc(OC[C@@]34CCCN3C[C@H](F)C4)nc3c(F)c(-c4ccc(F)c5sc(N)c(C#N)c45)ccc23)C1 [Compound 80]
B (50≤percent of modification <70%) | C (10%≤modification <50%) | A (percent of modification ≥70%) | ≤ 500 | ≤ 100 | C=CC(=O)N1C[C@@H](F)[C@@H](Oc2nc(OC[C@@]34CCCN3C[C@H](F)C4)nc3c(F)c(-c4ccc(F)c5sc(N)nc45)ccc23)C1 [Compound 82]
B (50≤percent of modification <70%) | C (10%≤modification <50%) | A (percent of modification ≥70%) | ≤ 500 | ≤ 100 | C=CC(=O)N1C[C@H](Oc2nc(OC[C@@]34CCCN3C[C@H](F)C4)nc3cc(-c4ccc(F)c5sc(N)c(C#N)c45)c(C(F)(F)F)nc23)C[C@H]1C [Compound 83]
